Data taken from patent US11236046B2, “Substituted heterocyclic sulfonamide compounds useful as TRPA1 modulators” (Genentech, Inc., priority 2013, dated 2022).

The compounds below were run against human TRPA1 (Homo sapiens (Human), UniProt O75762) (assay: FLIPR Tetra calcium influx assay, block of cinnamaldehyde-induced calcium influx in CHO cells expressing TRPA1 (human)). Settings: 20 min compound incubation, 75 uM cinnamaldehyde (~EC80), Hill coefficient fixed to 1.5, read-out: hTRPA1 AUC IC50.
Chain of human TRPA1 (O75762 whole entry): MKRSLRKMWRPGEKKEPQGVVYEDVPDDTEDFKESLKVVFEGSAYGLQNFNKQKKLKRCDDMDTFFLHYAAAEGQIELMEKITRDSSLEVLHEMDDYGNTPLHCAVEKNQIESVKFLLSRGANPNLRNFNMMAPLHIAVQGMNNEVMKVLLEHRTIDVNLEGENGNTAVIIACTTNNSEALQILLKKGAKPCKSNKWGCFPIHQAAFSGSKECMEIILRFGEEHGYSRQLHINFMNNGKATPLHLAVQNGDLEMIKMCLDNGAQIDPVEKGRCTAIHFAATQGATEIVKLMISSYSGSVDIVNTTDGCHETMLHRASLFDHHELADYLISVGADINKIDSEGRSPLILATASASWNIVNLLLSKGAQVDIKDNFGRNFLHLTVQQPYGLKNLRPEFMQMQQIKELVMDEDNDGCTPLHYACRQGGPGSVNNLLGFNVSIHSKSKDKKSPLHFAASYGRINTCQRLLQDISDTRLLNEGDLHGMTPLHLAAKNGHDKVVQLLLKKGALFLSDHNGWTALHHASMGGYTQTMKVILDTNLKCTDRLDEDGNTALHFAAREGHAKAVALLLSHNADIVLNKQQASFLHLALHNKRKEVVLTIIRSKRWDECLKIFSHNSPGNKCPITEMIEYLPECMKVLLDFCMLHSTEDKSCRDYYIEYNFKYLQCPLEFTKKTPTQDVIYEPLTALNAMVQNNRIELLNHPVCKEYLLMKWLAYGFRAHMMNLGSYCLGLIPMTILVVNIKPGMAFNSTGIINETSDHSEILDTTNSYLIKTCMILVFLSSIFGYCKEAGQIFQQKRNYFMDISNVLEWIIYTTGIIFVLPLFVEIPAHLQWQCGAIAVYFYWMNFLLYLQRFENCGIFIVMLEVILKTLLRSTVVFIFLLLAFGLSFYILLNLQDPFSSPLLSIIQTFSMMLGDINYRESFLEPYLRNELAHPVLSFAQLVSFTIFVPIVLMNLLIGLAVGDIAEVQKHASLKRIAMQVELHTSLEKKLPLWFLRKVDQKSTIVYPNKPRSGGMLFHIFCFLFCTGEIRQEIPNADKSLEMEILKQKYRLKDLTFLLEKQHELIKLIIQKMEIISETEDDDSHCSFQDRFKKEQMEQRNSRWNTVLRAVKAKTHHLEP
Format: cell-based
Procedure, shortened: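 CHO cells loaded with calcium dye, preincubated with compounds 20 min at room temperature in HBSS/20 mM HEPES pH 7.4 with 0.02% BSA. Channels activated by ~EC80 cinnamaldehyde (75 uM human, 45 uM rat); block of calcium influx read on FLIPR Tetra, IC50 fitted with fixed Hill coefficient.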

| Structure (SMILES) | IC50 |
| --- | --- |
| O=C(NCc1cc(-c2ccc(C(F)(F)F)nc2)ccc1F)[C@@H]1C[C@@H](F)CN1S(=O)(=O)c1ccc(F)cc1 [Example 161, (2S,4R)-4-fluoro-N-(2-fluoro-5-(6-(trifluoromethyl)pyridin-3-yl)benzyl)-1-((4-fluorophenyl)sulfonyl)pyrrolidine-2-carboxamide] | 0.009 µM |
| COc1nc(C(F)(F)F)ccc1-c1cc(F)cc(CNC(=O)[C@@H]2C[C@@H](F)CN2S(=O)(=O)c2ccc(F)cc2)c1 [Example 44, (2S,4R)-4-fluoro-N-([3-fluoro-5-[2-methoxy-6-(trifluoromethyl)pyridin-3-yl]phenyl]methyl)-1-[(4-fluorobenzene)sulfonyl]pyrrolidine-2-carboxamide] | 0.048 µM |
| O=C(NCc1cc(N2CCC3(CC2)CC3)c(F)cn1)[C@@H]1C[C@@H](F)CN1S(=O)(=O)c1ccc(F)cc1 [Example 129, (2S,4R)—N-[[4-(6-azaspiro[2.5]octan-6-yl)-5-fluoro-2-pyridyl]methyl]-4-fluoro-1-(4-fluorophenyl)sulfonyl-pyrrolidine-2-carboxamide] | 0.099 µM |
| C[C@@]1(C(=O)NCc2cc(-c3ccc(C(F)(F)F)nc3)ncn2)CCN1S(=O)(=O)c1ccc(F)cc1 [Example 198, (S)-1-(4-fluorophenylsulfonyl)-2-methyl-N-((6-(6-(trifluoromethyl)pyridin-3-yl)pyrimidin-4-yl)methyl)azetidine-2-carboxamide] | 0.059 µM |
| O=C(NCc1cc(-c2cnc(C(F)(F)F)nc2)cnc1F)[C@@H]1C[C@@H](F)CN1S(=O)(=O)c1ccc(F)cc1 [Example 171, (2S,4R)-4-fluoro-1-(4-fluorophenyl)sulfonyl-N-[[2-fluoro-5-[2-(trifluoromethyl)pyrimidin-5-yl]-3-pyridyl]methyl]pyrrolidine-2-carboxamide] | 0.211 µM |
| O=C(NCc1cc(-c2ccc(C(F)(F)F)cc2)ncn1)[C@@H]1C[C@@H]2COC[C@@H]2N1S(=O)(=O)c1ccc(F)cc1 (single isomer, unassigned) [Example 100] | 0.449 µM |
| C[C@@]1(C(=O)NCc2cc(-c3ccc(C(F)(F)F)cc3)ncn2)C[C@@H](F)CN1S(=O)(=O)c1ccc(F)cc1 (single isomer, unassigned) [Example 138] | 0.025 µM |
| O=C(NCc1cc(Cl)nc(-c2ccc(OC(F)F)cc2)c1)[C@@H]1C[C@@H](F)CN1S(=O)(=O)c1ccc(F)cc1 [Example 165, (2S,4R)—N-((2-chloro-6-(4-(difluoromethoxy)phenyl)pyridin-4-yl)methyl)-4-fluoro-1-((4-fluorophenyl)sulfonyl)pyrrolidine-2-carboxamide] | 0.066 µM |
| C[C@@]1(F)C[C@@H](C(=O)NCc2cc(F)cc(-c3cnc(C(F)(F)F)cn3)c2)N(S(=O)(=O)c2ccc(F)cc2)C1 [Example 47, (2S,4R)-4-fluoro-N-(3-fluoro-5-(5-(trifluoromethyl)pyrazin-2-yl)benzyl)-1-((4-fluorophenyl)sulfonyl)-4-methylpyrrolidine-2-carboxamide] | 0.011 µM |
| O=C(NCc1cc(-c2cnc(C(F)(F)F)nc2)nc(-c2cnc(C(F)(F)F)nc2)c1)[C@@H]1C[C@@H](F)CN1S(=O)(=O)c1ccc(F)cc1 [Example 61, (2S,4R)—N-[[2,6-bis[2-(trifluoromethyl)pyrimidin-5-yl]-4-pyridyl]methyl]-4-fluoro-1-(4-fluorophenyl)sulfonyl-pyrrolidine-2-carboxamide] | 0.071 µM |
| O=C(NCc1cc(-c2ccc3c(c2)OC(F)(F)O3)ncn1)[C@@H]1C[C@@H](F)CN1S(=O)(=O)c1ccc(F)cc1 [Example 92, (2S,4R)—N-[[6-(2,2-difluoro-2H-1,3-benzodioxol-5-yl)pyrimidin-4-yl]methyl]-4-fluoro-1-[(4-fluorobenzene)sulfonyl]pyrrolidine-2-carboxamide] | 0.087 µM |
| Cc1cc(-c2cnc(C(F)(F)F)nc2)cc(CNC(=O)[C@@H]2[C@@H](F)CCN2S(=O)(=O)c2ccc(F)cc2)n1 [Example 191, (2R,3S)-3-fluoro-1-[(4-fluorobenzene)sulfonyl]-N-([6-methyl-4-[2-(trifluoromethyl)pyrimidin-5-yl]pyridin-2-yl]methyl)pyrrolidine-2-carboxamide] | 0.027 µM |
| C[C@H]1CC[C@@H](C(=O)NCc2ccnc(-c3cnc(C(F)(F)F)nc3)c2)N1S(=O)(=O)c1ccc(F)cc1 [Example 186, (2S,5S)-1-(4-fluorophenylsulfonyl)-5-methyl-N-((2-(2-(trifluoromethyl)pyrimidin-5-yl)pyridin-4-yl)methyl)pyrrolidine-2-carboxamide] | 0.004 µM |
| COc1nn(-c2ccc(C(F)(F)F)nc2)cc1CNC(=O)[C@@H]1[C@@H](F)CCN1S(=O)(=O)c1ccc(F)cc1 [Example 103, (2R,3S)-3-fluoro-1-(4-fluorophenylsulfonyl)-N-((3-methoxy-1-(6-(trifluoromethyl)pyridin-3-yl)-1H-pyrazol-4-yl)methyl)pyrrolidine-2-carboxamide] | 0.026 µM |
| O=C(NCc1cc(F)cc(-n2ccc(C(F)(F)F)n2)c1)[C@@H]1C[C@@H](F)CN1S(=O)(=O)c1ccc(F)cc1 [Example 87, (2S,4R)-4-fluoro-1-(4-fluorophenyl)sulfonyl-N-[[3-fluoro-5-[3-(trifluoromethyl)pyrazol-1-yl]phenyl]methyl]pyrrolidine-2-carboxamide] | 0.103 µM |
| O=C(NCc1cc(-c2ccc(C(F)F)cc2)c(F)cn1)[C@@H]1C[C@@H](F)CN1S(=O)(=O)c1ccc(F)cc1 [Example 88, (2S,4R)—N-[[4-[4-(difluoromethyl)phenyl]-5-fluoro-2-pyridyl]methyl]-4-fluoro-1-(4-fluorophenyl)sulfonyl-pyrrolidine-2-carboxamide] | 0.041 µM |
| O=C(NCc1cc(F)cc(-c2ccc(C(F)F)cn2)c1)[C@@H]1C[C@@H](F)CN1S(=O)(=O)c1ccc(F)cc1 [Example 75, (2S,4R)—N-[[3-[5-(difluoromethyl)-2-pyridyl]-5-fluoro-phenyl]methyl]-4-fluoro-1-(4-fluorophenyl)sulfonyl-pyrrolidine-2-carboxamide] | 0.031 µM |

Further lines, results first:

| IC50 | Structure (SMILES) |
| --- | --- |
| 0.007 µM | O=C(NCc1cc(-c2ccc(C(F)(F)F)cn2)ccn1)[C@@H]1[C@@H](F)CCN1S(=O)(=O)c1ccc(F)cc1 [Example 72, (2R,3S)-3-fluoro-1-(4-fluorophenyl)sulfonyl-N-[[4-[5-(trifluoromethyl)-2-pyridyl]-2-pyridyl]methyl]pyrrolidine-2-carboxamide] |
| 0.014 µM | O=C(NCc1cc(F)cc(-c2cnc(C(F)(F)F)cn2)c1)[C@@H]1C[C@@H](F)CN1S(=O)(=O)c1ccc(F)cc1 [Example 122, (2S,4R)-4-fluoro-1-(4-fluorophenyl)sulfonyl-N-[[3-fluoro-5-[5-(trifluoromethyl)pyrazin-2-yl]phenyl]methyl]pyrrolidine-2-carboxamide] |
| 0.161 µM | O=C(NCc1cc(-c2ccc(C(F)(F)F)cc2F)ncn1)[C@@H]1C[C@@H](F)CN1S(=O)(=O)c1ccc(F)cc1 [Example 113, (2S,4R)-4-fluoro-N-((6-(2-fluoro-4-(trifluoromethyl)phenyl)pyrimidin-4-yl)methyl)-1-(4-fluorophenylsulfonyl)pyrrolidine-2-carboxamide] |
| 0.004 µM | O=C(NCc1cc(-c2cnc(C(F)(F)F)nc2)ccc1Cl)[C@@H]1C[C@@H](F)CN1S(=O)(=O)c1ccc(F)cc1 [Example 158, (2S,4R)—N-[[2-chloro-5-[2-(trifluoromethyl)pyrimidin-5-yl]phenyl]methyl]-4-fluoro-1-(4-fluorophenyl)sulfonyl-pyrrolidine-2-carboxamide] |
| 0.018 µM | O=C(NCc1ccnc(-c2ccc(OC(F)(F)F)cc2)c1)[C@@H]1C[C@@H](F)CN1S(=O)(=O)c1ccc(F)cc1 [Example 159, (2S,4R)-4-fluoro-1-(4-fluorophenyl)sulfonyl-N-[[2-[4-(trifluoromethoxy)phenyl]-4-pyridyl]methyl]pyrrolidine-2-carboxamide] |
| 0.011 µM | O=C(NCc1cc(-c2ccc(C(F)(F)F)cn2)ccc1F)[C@@H]1C[C@@H](F)CN1S(=O)(=O)c1ccc(F)cc1 [Example 162, (2S,4R)-4-fluoro-N-(2-fluoro-5-(5-(trifluoromethyl)pyridin-2-yl)benzyl)-1-((4-fluorophenyl)sulfonyl)pyrrolidine-2-carboxamide] |
| 0.102 µM | O=C(NCc1cc(-c2ccc(C(F)(F)F)cn2)ccn1)[C@@H]1C[C@@H](F)CN1S(=O)(=O)c1ccc(F)cc1 [Example 131, (2S,4R)-4-fluoro-1-(4-fluorophenyl)sulfonyl-N-[[4-[5-(trifluoromethyl)-2-pyridyl]-2-pyridyl]methyl]pyrrolidine-2-carboxamide] |
| 0.046 µM | O=C(NCc1cc(-c2ccc(C(F)(F)F)cc2)ncn1)[C@@H]1C[C@@H](F)CN1S(=O)(=O)c1ccc(F)c(F)c1 [Example 150, (2S,4R)-1-(3,4-difluorophenylsulfonyl)-4-fluoro-N-((6-(4-(trifluoromethyl)phenyl)pyrimidin-4-yl)methyl)pyrrolidine-2-carboxamide] |
| 0.066 µM | O=C(NCc1cc(-c2cnc(C(F)(F)F)cn2)c(F)cn1)[C@@H]1C[C@@H](F)CN1S(=O)(=O)c1ccc(F)cc1 [Example 102, (2S,4R)-4-fluoro-N-([5-fluoro-4-[5-(trifluoromethyl)pyrazin-2-yl]pyridin-2-yl]methyl)-1-[(4-fluorobenzene)sulfonyl]pyrrolidine-2-carboxamide] |
| 0.042 µM | O=C(NCc1cc(-c2cnc(C(F)(F)F)nc2)c(Cl)cn1)[C@@H]1C[C@@H](F)CN1S(=O)(=O)c1ccc(F)cc1 [Example 192, (2S,4R)—N-([5-chloro-4-[2-(trifluoromethyl)pyrimidin-5-yl]pyridin-2-yl]methyl)-4-fluoro-1-[(4-fluorobenzene)sulfonyl]pyrrolidine-2-carboxamide] |
| 0.049 µM | O=C(NCc1cc(-c2ccc(C(F)(F)F)nc2)cc(F)n1)[C@@H]1C[C@@H](F)CN1S(=O)(=O)c1ccc(F)cc1 [Example 120, (2S,4R)-4-fluoro-1-(4-fluorophenyl)sulfonyl-N-[[6-fluoro-4-[6-(trifluoromethyl)-3-pyridyl]-2-pyridyl]methyl]pyrrolidine-2-carboxamide] |
